In US8975398B2, “NAMPT inhibitors” (AbbVie Inc., priority 2012, dated 2015):

Tests used:
[1] = molecular target: NAMPT (human, recombinant, C-terminally His-tagged) (Homo sapiens, UniProt P43490); experiment: Time-Resolved Fluorescence Resonance Energy Transfer (TR-FRET) Binding Assay of NAMPT; details: 6.8 nM NAMPT, 200 nM probe, equilibrated 3 hours, absence of substrates
How it was run: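 Probe displacement measured by TR-FRET (Ex 337 nm; 520/495 nm ratio) after 3 h room-temperature equilibration of compound with 6.8 nM His-tagged human NAMPT, 1 nM Tb-anti-His antibody and 200 nM Oregon Green 488 nicotinamide-site probe, pH 7.5 HEPES buffer, 2% DMSO. Control-normalized data fit four-parameter logistic for IC50.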

NAMPT = NAMPT (Homo sapiens, UniProt P43490); experiment: Time-Resolved Fluorescence Resonance Energy Transfer (TR-FRET) Binding Assay of NAMPT with PRPP; details: 2 nM NAMPT, 2 nM probe, 200 uM PRPP and 2.5 mM ATP, equilibrated 16 hours
How it was run: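 Binding measured by TR-FRET after a 16-hour equilibration meant to permit enzymatic compound modification. Substrates present at 200 uM PRPP and 2.5 mM ATP, with 2 nM enzyme, 2 nM probe, 1 nM Tb-anti-His antibody and 2% DMSO final.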

NAMPT (human, recombinant, C-terminally His-tagged), sequence (P43490 whole entry): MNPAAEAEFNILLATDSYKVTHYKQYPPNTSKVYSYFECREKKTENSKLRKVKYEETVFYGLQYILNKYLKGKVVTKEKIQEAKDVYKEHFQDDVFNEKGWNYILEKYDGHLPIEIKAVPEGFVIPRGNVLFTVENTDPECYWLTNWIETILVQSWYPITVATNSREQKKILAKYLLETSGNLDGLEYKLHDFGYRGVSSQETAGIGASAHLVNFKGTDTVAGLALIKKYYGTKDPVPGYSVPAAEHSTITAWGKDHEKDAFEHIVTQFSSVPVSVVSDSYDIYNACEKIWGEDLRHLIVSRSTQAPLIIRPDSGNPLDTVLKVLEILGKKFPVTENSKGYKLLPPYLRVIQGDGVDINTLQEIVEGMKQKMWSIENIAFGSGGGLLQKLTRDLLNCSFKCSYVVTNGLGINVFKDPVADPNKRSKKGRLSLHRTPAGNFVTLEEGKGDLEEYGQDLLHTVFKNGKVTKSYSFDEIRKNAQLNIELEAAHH
NAMPT, sequence (P43490 whole entry): as above

| IC50 [1] [nM] | IC50 (NAMPT) [nM] | Compound |
| --- | --- | --- |
| 86 | 1.02 | O=C(Nc1ccc(OC2CCN(C(=O)Cc3ccccc3F)CC2)cc1)C1CN(c2cccnn2)C1 [Example 247, N-[4-({1-[(2-fluorophenyl)acetyl]piperidin-4-yl}oxy)phenyl]-1-(pyridazin-3-yl)azetidine-3-carboxamide] |
| 17.7 | 1.14 | Cc1cccc(C(=O)N2CCC(c3ccc(NC(=O)C4CN(c5cccnn5)C4)cc3)CC2)c1C [Example 357, N-{4-[1-(2,3-dimethylbenzoyl)piperidin-4-yl]phenyl}-1-(pyridazin-3-yl)azetidine-3-carboxamide] |
| 64.7 | 41.9 | CC1CC1C(=O)N1CC(Oc2ccc(NC(=O)C3CN(c4ccnnc4)C3)cc2)C1 (centres unmarked) [Example 257, N-[4-({1-[(2-methylcyclopropyl)carbonyl]azetidin-3-yl}oxy)phenyl]-1-(pyridazin-4-yl)azetidine-3-carboxamide] |
| 5880 | 0.861 | CC(C)(O)C(=O)N1CCC(Oc2ccc(C(=O)NC3CN(c4cccnc4)C3)cc2)CC1 [Example 24, 4-{[1-(2-hydroxy-2-methylpropanoyl)piperidin-4-yl]oxy}-N-[1-(pyridin-3-yl)azetidin-3-yl]benzamide] |
| 121 | 0.704 | CCC(=O)N1CCC(Oc2ccc(NC(=O)C3CN(c4cccnc4)C3)cc2)CC1 [Example 65, N-{4-[(1-propanoylpiperidin-4-yl)oxy]phenyl}-1-(pyridin-3-yl)azetidine-3-carboxamide] |
| 50.1 | 1.05 | O=C(Nc1ccc(C2CCN(C(=O)c3cc(Cl)cc(Cl)c3)CC2)cc1)C1CN(c2cccnn2)C1 [Example 365, N-{4-[1-(3,5-dichlorobenzoyl)piperidin-4-yl]phenyl}-1-(pyridazin-3-yl)azetidine-3-carboxamide] |
| 55.4 | 24.2 | Cc1ccc(C(=O)N2CCC(Oc3ccc(NC(=O)C4CN(c5ccnnc5)C4)cc3)CC2)s1 [Example 304, N-[4-({1-[(5-methylthiophen-2-yl)carbonyl]piperidin-4-yl}oxy)phenyl]-1-(pyridazin-4-yl)azetidine-3-carboxamide] |
| 284 | 128 | CCC(=O)N1CCC(c2ccc(NC(=O)C3CN(c4cccnc4C)C3)cc2)CC1 [Example 181, 1-(2-methylpyridin-3-yl)-N-[4-(1-propanoylpiperidin-4-yl)phenyl]azetidine-3-carboxamide] |
| 22.4 | 0.576 | O=C(Nc1ccc(C2CCN(C(=O)Cc3cc(F)ccc3F)CC2)cc1)C1CN(c2cccnn2)C1 [Example 373, N-(4-{1-[(2,5-difluorophenyl)acetyl]piperidin-4-yl}phenyl)-1-(pyridazin-3-yl)azetidine-3-carboxamide] |
| 67.7 | 0.878 | O=C(Nc1ccc(C2CCN(C(=O)c3cccc(OC(F)(F)F)c3)CC2)cc1)C1CN(c2cccnn2)C1 [Example 356, 1-(pyridazin-3-yl)-N-(4-{1-[3-(trifluoromethoxy)benzoyl]piperidin-4-yl}phenyl)azetidine-3-carboxamide] |
| 126 | 79.8 | Cc1ncccc1N1CC(C(=O)Nc2ccc(C3CCN(C(=O)CC(C)C)CC3)cc2)C1 [Example 197, N-{4-[1-(3-methylbutanoyl)piperidin-4-yl]phenyl}-1-(2-methylpyridin-3-yl)azetidine-3-carboxamide] |
| 34.2 | 21.1 | O=C(Nc1ccc(OC2CN(C(=O)Cc3ccc(F)cc3)C2)cc1)C1CN(c2ccnnc2)C1 [Example 203, N-[4-({1-[(4-fluorophenyl)acetyl]azetidin-3-yl}oxy)phenyl]-1-(pyridazin-4-yl)azetidine-3-carboxamide] |
| 6070 | 1.81 | CCC(C)(C)CN1CCC(Oc2ccc(NC(=O)C3CN(c4cccnc4)C3)cc2)CC1 [Example 84, N-(4-{[1-(2,2-dimethylbutyl)piperidin-4-yl]oxy}phenyl)-1-(pyridin-3-yl)azetidine-3-carboxamide] |
| 6.63 | 0.169 | CC1(C(=O)N2CCC(c3ccc(NC(=O)C4CN(c5cccnc5)C4)cc3)CC2)CC1 [Example 110, N-(4-{1-[(1-methylcyclopropyl)carbonyl]piperidin-4-yl}phenyl)-1-(pyridin-3-yl)azetidine-3-carboxamide] |
| 56.2 | 0.493 | O=C(Nc1ccc(C2CCN(C(=O)CN3CCOCC3)CC2)cc1)C1CN(c2cccnc2)C1 [Example 103, N-{4-[1-(morpholin-4-ylacetyl)piperidin-4-yl]phenyl}-1-(pyridin-3-yl)azetidine-3-carboxamide] |
| 37.7 | 22.3 | O=C(Nc1ccc(OC2CCN(C(=O)C(F)(F)c3ccccc3)CC2)cc1)C1CN(c2ccnnc2)C1 [Example 269, N-[4-({1-[difluoro(phenyl)acetyl]piperidin-4-yl}oxy)phenyl]-1-(pyridazin-4-yl)azetidine-3-carboxamide] |

| IC50 [1] [nM] | IC50 (NAMPT) [nM] | Compound |
| --- | --- | --- |
| 104 | 47 | O=C(Nc1ccc(OC2CCN(C(=O)c3ccc(Cl)cc3)CC2)cc1)C1CN(c2ccnnc2)C1 [Example 297, N-(4-{[1-(4-chlorobenzoyl)piperidin-4-yl]oxy}phenyl)-1-(pyridazin-4-yl)azetidine-3-carboxamide] |
| 17.6 | 0.722 | O=C(Nc1ccc(C2CCN(C(=O)CC3CCCCC3)CC2)cc1)C1CN(c2cccnn2)C1 [Example 340, N-{4-[1-(cyclohexylacetyl)piperidin-4-yl]phenyl}-1-(pyridazin-3-yl)azetidine-3-carboxamide] |
| 123 | 51.9 | CC(C)(C)C(=O)N1CCC(Oc2ccc(NC(=O)C3CN(c4ccnnc4)C3)cc2)CC1 [Example 280, N-(4-{[1-(2,2-dimethylpropanoyl)piperidin-4-yl]oxy}phenyl)-1-(pyridazin-4-yl)azetidine-3-carboxamide] |
| 105 | 0.48 | Cc1ccc(C(=O)N2CCC(Oc3ccc(NC(=O)C4CN(c5cccnn5)C4)cc3)CC2)s1 [Example 219, N-[4-({1-[(5-methylthiophen-2-yl)carbonyl]piperidin-4-yl}oxy)phenyl]-1-(pyridazin-3-yl)azetidine-3-carboxamide] |
| 242 | 0.896 | O=C(Nc1ccc(OC2CCN(C(=O)C3CCOC3)CC2)cc1)C1CN(c2cccnn2)C1 (centres unmarked) [Example 226, 1-(pyridazin-3-yl)-N-(4-{[1-(tetrahydrofuran-3-ylcarbonyl)piperidin-4-yl]oxy}phenyl)azetidine-3-carboxamide] |
| 42.8 | 0.49 | CCC(C)(C)C(=O)N1CCC(Oc2ccc(NC(=O)C3CN(c4cccnc4)C3)cc2)CC1 [Example 40, N-(4-{[1-(2,2-dimethylbutanoyl)piperidin-4-yl]oxy}phenyl)-1-(pyridin-3-yl)azetidine-3-carboxamide] |
| 267 | 1.01 | O=C(Nc1ccc(OC2CCN(C(=O)Cc3ccc(C(F)(F)F)cc3)CC2)cc1)C1CN(c2cccnn2)C1 [Example 220, 1-(pyridazin-3-yl)-N-{4-[(1-{[4-(trifluoromethyl)phenyl]acetyl}piperidin-4-yl)oxy]phenyl}azetidine-3-carboxamide] |
| 2.84 | 0.199 | Cc1ccsc1C(=O)N1CCC(c2ccc(NC(=O)C3CN(c4cccnc4)C3)cc2)CC1 [Example 111, N-(4-{1-[(3-methylthiophen-2-yl)carbonyl]piperidin-4-yl}phenyl)-1-(pyridin-3-yl)azetidine-3-carboxamide] |
| 9.94 | 0.169 | CCC(=O)N1CCC(c2ccc(NC(=O)C3CN(c4cccnc4)C3)cc2)CC1 [Example 121, N-[4-(1-propanoylpiperidin-4-yl)phenyl]-1-(pyridin-3-yl)azetidine-3-carboxamide] |
| 41.6 | 32.1 | O=C(Nc1ccc(OC2CCN(C(=O)c3ccccc3F)CC2)cc1)C1CN(c2ccnnc2)C1 [Example 289, N-(4-{[1-(2-fluorobenzoyl)piperidin-4-yl]oxy}phenyl)-1-(pyridazin-4-yl)azetidine-3-carboxamide] |
| 36.9 | 0.334 | O=C(Nc1ccc(C2CCN(C(=O)c3ccc(Cl)c(Cl)c3)CC2)cc1)C1CN(c2cccnn2)C1 [Example 364, N-{4-[1-(3,4-dichlorobenzoyl)piperidin-4-yl]phenyl}-1-(pyridazin-3-yl)azetidine-3-carboxamide] |
| 18.3 | 0.479 | O=C(Nc1ccc(C2CCN(C(=O)Cc3ccccc3Cl)CC2)cc1)C1CN(c2cccnn2)C1 [Example 369, N-(4-{1-[(2-chlorophenyl)acetyl]piperidin-4-yl}phenyl)-1-(pyridazin-3-yl)azetidine-3-carboxamide] |
| 296 | 0.244 | O=C(Nc1ccc(C2CCN(C(=O)CN3CCCC3)CC2)cc1)C1CN(c2cccnc2)C1 [Example 105, 1-(pyridin-3-yl)-N-{4-[1-(pyrrolidin-1-ylacetyl)piperidin-4-yl]phenyl}azetidine-3-carboxamide] |
| 8620 | 17.2 | CC(C)(C)OC(=O)N1CCC(Oc2ccc(NC(=O)[C@@H]3CCN(c4cccnc4)C3)cc2)CC1 [Example 9, tert-butyl 4-[4-({[(3R)-1-(pyridin-3-yl)pyrrolidin-3-yl]carbonyl}amino)phenoxy]piperidine-1-carboxylate] |
| 119 | 42.1 | O=C(Nc1ccc(OC2CCN(C(=O)CC(F)(F)F)CC2)cc1)C1CN(c2ccnnc2)C1 [Example 268, 1-(pyridazin-4-yl)-N-(4-{[1-(3,3,3-trifluoropropanoyl)piperidin-4-yl]oxy}phenyl)azetidine-3-carboxamide] |
